Results on 3 compounds are retold here after ChEMBL document CHEMBL3638614, “Diaza-spiro[5.5]undecanes” (2013).

The target in experiment [1] is T1, Orexin receptor type 2 (Homo sapiens, UniProt O43614).
T1 sequence (O43614 whole entry): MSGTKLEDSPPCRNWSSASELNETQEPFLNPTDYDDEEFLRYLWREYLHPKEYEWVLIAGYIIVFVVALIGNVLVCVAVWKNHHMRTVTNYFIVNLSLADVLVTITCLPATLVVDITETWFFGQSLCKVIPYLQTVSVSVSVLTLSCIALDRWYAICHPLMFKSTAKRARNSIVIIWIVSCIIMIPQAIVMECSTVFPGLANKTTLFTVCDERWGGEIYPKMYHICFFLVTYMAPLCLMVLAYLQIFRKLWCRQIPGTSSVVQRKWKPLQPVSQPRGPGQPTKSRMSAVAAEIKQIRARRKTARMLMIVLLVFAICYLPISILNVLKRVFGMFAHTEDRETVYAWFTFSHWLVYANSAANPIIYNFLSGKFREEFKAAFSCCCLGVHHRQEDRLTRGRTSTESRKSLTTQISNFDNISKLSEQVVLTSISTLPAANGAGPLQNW
Put plainly: (§1) FLIPR Assay : FLIPR assay using orexin receptor.

The target of experiment [2] is T2, Orexin/Hypocretin receptor type 1 (Homo sapiens, UniProt O43613).
T2 sequence (O43613 whole entry): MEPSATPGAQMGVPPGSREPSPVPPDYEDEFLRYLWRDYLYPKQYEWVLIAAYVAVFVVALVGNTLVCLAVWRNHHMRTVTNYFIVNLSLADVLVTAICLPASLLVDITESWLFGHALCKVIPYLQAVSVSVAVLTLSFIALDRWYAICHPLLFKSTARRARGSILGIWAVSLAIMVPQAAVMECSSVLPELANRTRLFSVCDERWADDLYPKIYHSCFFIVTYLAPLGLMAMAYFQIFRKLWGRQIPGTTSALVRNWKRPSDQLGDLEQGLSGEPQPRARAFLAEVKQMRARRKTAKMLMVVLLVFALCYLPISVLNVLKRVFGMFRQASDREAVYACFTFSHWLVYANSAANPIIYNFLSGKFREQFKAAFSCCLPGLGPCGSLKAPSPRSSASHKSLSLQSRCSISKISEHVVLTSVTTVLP
The description is as §1.

In experiment [3] the target is T1, Orexin receptor type 2. Put plainly: (§2) Radioligand Binding Assay : Radioligand binding assay using orexin receptor.
Experiment [4] deals with T2, Orexin/Hypocretin receptor type 1. The description is as §2.

The structures appear in SMILES notation.

As to `O=C1N(Cc2cccc3ccccc23)CCCC12CCN(c1nc3ccccc3[nH]1)CC2`, the Ki (as a rule, the equilibrium dissociation constant of an inhibitor or competing ligand from its target) in experiment [1] amounted to 126 nM; in experiment [2], 2460 nM. Besides, the Kd (usually the free concentration of one partner at which half of the binding sites on the other are occupied at equilibrium, for simple one-to-one binding) in experiment [3] is 755 nM; in experiment [4], above 10000 nM.

For `Cn1c(N2CCC3(CCCN(Cc4ccccc4)C3=O)CC2)nc2ccccc21`, the Kd in experiment [3] and in experiment [4] was above 10000 nM each time.

In the case of `O=C1N(Cc2cc(Cl)cc3c2OCOC3)CCCC12CCN(c1cnc3ccccc3n1)CC2`, the Ki was 739 nM in experiment [1] and 1540 nM in experiment [2].
